Laboratory results: the kinase profiling compilation of Christmann-Franck et al. (2016)

biological target: MAP3K9 (human) (UniProt P80192); assay: radiometric filter-binding kinase assay, Kinase HotSpot; details: compound 0.5 µM; ATP 10 µM

O=C(O)c1ccc2c3c1cccc3c(=O)n1c3ccccc3nc21 was tested. Which residual activity did it give?
The residual activity was 64.4%.

With Cc1cc(Nc2nc(-c3ccccc3)nc3ccccc23)n[nH]1 as the compound, how does the residual activity read?
Its residual activity is 14.8%.

For N#Cc1c(NC(=O)c2cccc3ccccc23)sc2c1CCCC2, which residual activity is on record?
Its residual activity is 99.5%.

With COc1cc2ncnc(Nc3ccc(O)c(Br)c3)c2cc1OC as the compound, how does the residual activity read?
The residual activity was 80.1%.

biological target: MAP4K2 (human) (UniProt Q12851); assay: as above; details: compound 0.5 µM; ATP 10 µM

How did the residual activity turn out when O=C(O)c1ccc2c3c1cccc3c(=O)n1c3ccccc3nc21 was run?
The residual activity was 38%.

Cc1cc(Nc2nc(-c3ccccc3)nc3ccccc23)n[nH]1 was tested. Which residual activity did it give?
Its residual activity is 45.3%.

How did the residual activity turn out when N#Cc1c(NC(=O)c2cccc3ccccc23)sc2c1CCCC2 was run?
Its residual activity is 86.1%.

With COc1cc2ncnc(Nc3ccc(O)c(Br)c3)c2cc1OC as the compound, how does the residual activity read?
Its residual activity is 101%.

biological target: MAPK1 (human) (UniProt P28482); assay: as above; details: compound 0.5 µM; ATP 10 µM

Which residual activity does the source give for O=C(O)c1ccc2c3c1cccc3c(=O)n1c3ccccc3nc21 here?
Its residual activity is 100%.

With Cc1cc(Nc2nc(-c3ccccc3)nc3ccccc23)n[nH]1 as the compound, how does the residual activity read?
Its residual activity is 89.3%.

N#Cc1c(NC(=O)c2cccc3ccccc23)sc2c1CCCC2 was tested. Which residual activity did it give?
Its residual activity is 87.5%.

Which residual activity does the source give for COc1cc2ncnc(Nc3ccc(O)c(Br)c3)c2cc1OC here?
Its residual activity is 102%.

biological target: MAPK10 (human) (UniProt P53779); assay: as above; details: compound 0.5 µM; ATP 10 µM

O=C(O)c1ccc2c3c1cccc3c(=O)n1c3ccccc3nc21 was tested. Which residual activity did it give?
The residual activity was 108%.

With Cc1cc(Nc2nc(-c3ccccc3)nc3ccccc23)n[nH]1 as the compound, how does the residual activity read?
The residual activity was 88.7%.

For N#Cc1c(NC(=O)c2cccc3ccccc23)sc2c1CCCC2, which residual activity is on record?
The residual activity was 112%.

With COc1cc2ncnc(Nc3ccc(O)c(Br)c3)c2cc1OC as the compound, how does the residual activity read?
Its residual activity is 89%.

biological target: MAPKAPK5 (human) (UniProt Q8IW41); assay: as above; details: compound 0.5 µM; ATP 10 µM
Sequence (Q8IW41 whole entry, looked up): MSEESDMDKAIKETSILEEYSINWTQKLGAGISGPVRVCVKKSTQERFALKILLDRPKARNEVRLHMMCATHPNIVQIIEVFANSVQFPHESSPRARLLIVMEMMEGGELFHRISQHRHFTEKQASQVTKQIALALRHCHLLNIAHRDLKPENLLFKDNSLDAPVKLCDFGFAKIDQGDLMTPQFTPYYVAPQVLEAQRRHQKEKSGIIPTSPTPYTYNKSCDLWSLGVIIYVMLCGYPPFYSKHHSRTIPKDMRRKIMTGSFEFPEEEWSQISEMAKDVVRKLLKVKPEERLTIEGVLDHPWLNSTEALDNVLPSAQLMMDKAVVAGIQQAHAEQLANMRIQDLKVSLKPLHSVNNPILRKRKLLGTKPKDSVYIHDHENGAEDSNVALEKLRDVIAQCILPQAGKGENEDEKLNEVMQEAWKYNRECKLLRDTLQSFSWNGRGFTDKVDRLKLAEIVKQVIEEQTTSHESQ

O=C(O)c1ccc2c3c1cccc3c(=O)n1c3ccccc3nc21 was tested. Which residual activity did it give?
Its residual activity is 96%.

How did the residual activity turn out when Cc1cc(Nc2nc(-c3ccccc3)nc3ccccc23)n[nH]1 was run?
Its residual activity is 93.2%.

How did the residual activity turn out when N#Cc1c(NC(=O)c2cccc3ccccc23)sc2c1CCCC2 was run?
The residual activity was 96.6%.

COc1cc2ncnc(Nc3ccc(O)c(Br)c3)c2cc1OC was tested. Which residual activity did it give?
The residual activity was 98.7%.

biological target: MARK1 (human) (UniProt Q9P0L2); assay: as above; details: compound 0.5 µM; ATP 10 µM
Sequence (Q9P0L2 whole entry, looked up): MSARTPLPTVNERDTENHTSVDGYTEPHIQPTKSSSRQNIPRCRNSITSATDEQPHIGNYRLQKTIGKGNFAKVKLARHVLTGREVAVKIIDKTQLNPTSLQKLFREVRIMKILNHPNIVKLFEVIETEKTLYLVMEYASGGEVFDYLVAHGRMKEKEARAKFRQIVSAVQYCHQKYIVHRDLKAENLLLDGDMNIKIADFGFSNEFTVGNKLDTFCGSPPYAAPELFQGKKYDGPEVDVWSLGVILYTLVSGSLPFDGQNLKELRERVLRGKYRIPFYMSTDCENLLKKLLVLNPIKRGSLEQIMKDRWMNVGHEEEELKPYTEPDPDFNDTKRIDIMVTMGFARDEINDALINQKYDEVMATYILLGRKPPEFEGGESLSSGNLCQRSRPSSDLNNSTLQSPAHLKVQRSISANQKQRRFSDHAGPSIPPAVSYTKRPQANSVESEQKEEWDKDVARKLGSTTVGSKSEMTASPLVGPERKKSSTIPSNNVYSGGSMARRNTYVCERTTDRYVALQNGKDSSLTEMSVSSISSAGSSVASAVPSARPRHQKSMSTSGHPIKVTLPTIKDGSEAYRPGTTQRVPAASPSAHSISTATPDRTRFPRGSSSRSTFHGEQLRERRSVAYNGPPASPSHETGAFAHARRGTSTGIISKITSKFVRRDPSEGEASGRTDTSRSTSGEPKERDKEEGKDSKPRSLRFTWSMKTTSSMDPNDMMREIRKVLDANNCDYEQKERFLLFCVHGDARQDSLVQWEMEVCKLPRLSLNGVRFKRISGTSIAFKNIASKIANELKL

How did the residual activity turn out when O=C(O)c1ccc2c3c1cccc3c(=O)n1c3ccccc3nc21 was run?
Its residual activity is 79.5%.

Which residual activity does the source give for Cc1cc(Nc2nc(-c3ccccc3)nc3ccccc23)n[nH]1 here?
Its residual activity is 93.7%.

N#Cc1c(NC(=O)c2cccc3ccccc23)sc2c1CCCC2 was tested. Which residual activity did it give?
The residual activity was 100%.

How did the residual activity turn out when COc1cc2ncnc(Nc3ccc(O)c(Br)c3)c2cc1OC was run?
The residual activity was 94.8%.

biological target: MYLK (human) (UniProt Q15746); assay: as above; details: compound 0.5 µM; ATP 10 µM

For O=C(O)c1ccc2c3c1cccc3c(=O)n1c3ccccc3nc21, which residual activity is on record?
The residual activity was 89.8%.

How did the residual activity turn out when Cc1cc(Nc2nc(-c3ccccc3)nc3ccccc23)n[nH]1 was run?
The residual activity was 60.2%.

How did the residual activity turn out when N#Cc1c(NC(=O)c2cccc3ccccc23)sc2c1CCCC2 was run?
Its residual activity is 98.7%.

Which residual activity does the source give for COc1cc2ncnc(Nc3ccc(O)c(Br)c3)c2cc1OC here?
Its residual activity is 84.6%.

biological target: NEK4 (human) (UniProt P51957); assay: as above; details: compound 0.5 µM; ATP 10 µM

With O=C(O)c1ccc2c3c1cccc3c(=O)n1c3ccccc3nc21 as the compound, how does the residual activity read?
The residual activity was 60.4%.

Cc1cc(Nc2nc(-c3ccccc3)nc3ccccc23)n[nH]1 was tested. Which residual activity did it give?
Its residual activity is 95%.

N#Cc1c(NC(=O)c2cccc3ccccc23)sc2c1CCCC2 was tested. Which residual activity did it give?
Its residual activity is 94.6%.

COc1cc2ncnc(Nc3ccc(O)c(Br)c3)c2cc1OC was tested. Which residual activity did it give?
Its residual activity is 93.1%.

biological target: NUAK1 (human) (UniProt O60285); assay: as above; details: compound 0.5 µM; ATP 10 µM
Sequence (O60285 whole entry, looked up): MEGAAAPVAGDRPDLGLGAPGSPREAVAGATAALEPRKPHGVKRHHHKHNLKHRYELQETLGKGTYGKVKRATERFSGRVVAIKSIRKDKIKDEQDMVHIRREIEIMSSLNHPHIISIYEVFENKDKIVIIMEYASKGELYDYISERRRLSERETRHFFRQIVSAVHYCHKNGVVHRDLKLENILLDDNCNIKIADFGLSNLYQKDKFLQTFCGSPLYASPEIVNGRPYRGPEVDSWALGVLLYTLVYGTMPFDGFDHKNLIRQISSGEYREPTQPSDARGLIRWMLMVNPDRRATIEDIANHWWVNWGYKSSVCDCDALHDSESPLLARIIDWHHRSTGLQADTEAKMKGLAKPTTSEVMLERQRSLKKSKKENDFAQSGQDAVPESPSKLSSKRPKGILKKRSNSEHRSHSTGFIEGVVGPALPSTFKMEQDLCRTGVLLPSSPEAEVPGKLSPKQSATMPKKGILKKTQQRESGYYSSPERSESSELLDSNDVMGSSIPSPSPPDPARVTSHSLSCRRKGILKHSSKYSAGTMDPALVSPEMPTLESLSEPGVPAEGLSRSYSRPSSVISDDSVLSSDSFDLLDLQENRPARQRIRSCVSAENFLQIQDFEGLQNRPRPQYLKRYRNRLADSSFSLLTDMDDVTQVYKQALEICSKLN

With O=C(O)c1ccc2c3c1cccc3c(=O)n1c3ccccc3nc21 as the compound, how does the residual activity read?
Its residual activity is 41.3%.

Which residual activity does the source give for Cc1cc(Nc2nc(-c3ccccc3)nc3ccccc23)n[nH]1 here?
The residual activity was 3.88%.

For N#Cc1c(NC(=O)c2cccc3ccccc23)sc2c1CCCC2, which residual activity is on record?
The residual activity was 97.3%.

For COc1cc2ncnc(Nc3ccc(O)c(Br)c3)c2cc1OC, which residual activity is on record?
The residual activity was 68.2%.

biological target: OXSR1 (human) (UniProt O95747); assay: as above; details: compound 0.5 µM; ATP 10 µM
Sequence (O95747 whole entry, looked up): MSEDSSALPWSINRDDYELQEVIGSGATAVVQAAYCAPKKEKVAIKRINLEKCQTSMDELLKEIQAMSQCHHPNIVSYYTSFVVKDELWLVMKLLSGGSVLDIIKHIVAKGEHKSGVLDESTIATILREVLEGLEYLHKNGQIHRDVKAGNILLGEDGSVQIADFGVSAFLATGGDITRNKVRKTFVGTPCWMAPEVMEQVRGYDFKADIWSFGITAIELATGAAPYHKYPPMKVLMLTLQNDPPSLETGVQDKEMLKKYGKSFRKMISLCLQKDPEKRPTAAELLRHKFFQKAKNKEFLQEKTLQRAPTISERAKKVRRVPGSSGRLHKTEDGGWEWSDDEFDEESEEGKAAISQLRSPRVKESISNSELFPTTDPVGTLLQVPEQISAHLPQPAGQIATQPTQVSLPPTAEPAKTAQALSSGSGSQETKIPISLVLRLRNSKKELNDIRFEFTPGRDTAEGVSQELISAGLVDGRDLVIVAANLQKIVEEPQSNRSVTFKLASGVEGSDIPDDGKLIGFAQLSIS

Which residual activity does the source give for O=C(O)c1ccc2c3c1cccc3c(=O)n1c3ccccc3nc21 here?
The residual activity was 104%.

For Cc1cc(Nc2nc(-c3ccccc3)nc3ccccc23)n[nH]1, which residual activity is on record?
The residual activity was 98.1%.

N#Cc1c(NC(=O)c2cccc3ccccc23)sc2c1CCCC2 was tested. Which residual activity did it give?
Its residual activity is 103%.

Which residual activity does the source give for COc1cc2ncnc(Nc3ccc(O)c(Br)c3)c2cc1OC here?
The residual activity was 98.8%.

biological target: PIM1 (human) (UniProt P11309); assay: as above; details: compound 0.5 µM; ATP 10 µM

Which residual activity does the source give for O=C(O)c1ccc2c3c1cccc3c(=O)n1c3ccccc3nc21 here?
The residual activity was 59.5%.

For Cc1cc(Nc2nc(-c3ccccc3)nc3ccccc23)n[nH]1, which residual activity is on record?
Its residual activity is 83.3%.

How did the residual activity turn out when N#Cc1c(NC(=O)c2cccc3ccccc23)sc2c1CCCC2 was run?
Its residual activity is 105%.

For COc1cc2ncnc(Nc3ccc(O)c(Br)c3)c2cc1OC, which residual activity is on record?
Its residual activity is 75.5%.

biological target: PNCK (human) (UniProt Q6P2M8); assay: as above; details: compound 0.5 µM; ATP 10 µM
Sequence (Q6P2M8 whole entry, looked up): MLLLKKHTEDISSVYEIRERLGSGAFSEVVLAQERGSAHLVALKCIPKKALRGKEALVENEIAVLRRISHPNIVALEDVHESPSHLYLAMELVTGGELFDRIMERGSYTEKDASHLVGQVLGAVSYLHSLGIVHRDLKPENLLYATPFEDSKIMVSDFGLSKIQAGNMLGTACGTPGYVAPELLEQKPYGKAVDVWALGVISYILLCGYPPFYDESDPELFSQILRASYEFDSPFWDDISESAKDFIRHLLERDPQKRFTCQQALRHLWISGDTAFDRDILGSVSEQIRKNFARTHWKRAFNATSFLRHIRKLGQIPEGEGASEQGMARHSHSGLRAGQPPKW

For O=C(O)c1ccc2c3c1cccc3c(=O)n1c3ccccc3nc21, which residual activity is on record?
The residual activity was 101%.

Which residual activity does the source give for Cc1cc(Nc2nc(-c3ccccc3)nc3ccccc23)n[nH]1 here?
Its residual activity is 102%.

For N#Cc1c(NC(=O)c2cccc3ccccc23)sc2c1CCCC2, which residual activity is on record?
Its residual activity is 104%.

How did the residual activity turn out when COc1cc2ncnc(Nc3ccc(O)c(Br)c3)c2cc1OC was run?
The residual activity was 103%.

biological target: PRKCH (human) (UniProt P24723); assay: as above; details: compound 0.5 µM; ATP 10 µM
Sequence (P24723 whole entry, looked up): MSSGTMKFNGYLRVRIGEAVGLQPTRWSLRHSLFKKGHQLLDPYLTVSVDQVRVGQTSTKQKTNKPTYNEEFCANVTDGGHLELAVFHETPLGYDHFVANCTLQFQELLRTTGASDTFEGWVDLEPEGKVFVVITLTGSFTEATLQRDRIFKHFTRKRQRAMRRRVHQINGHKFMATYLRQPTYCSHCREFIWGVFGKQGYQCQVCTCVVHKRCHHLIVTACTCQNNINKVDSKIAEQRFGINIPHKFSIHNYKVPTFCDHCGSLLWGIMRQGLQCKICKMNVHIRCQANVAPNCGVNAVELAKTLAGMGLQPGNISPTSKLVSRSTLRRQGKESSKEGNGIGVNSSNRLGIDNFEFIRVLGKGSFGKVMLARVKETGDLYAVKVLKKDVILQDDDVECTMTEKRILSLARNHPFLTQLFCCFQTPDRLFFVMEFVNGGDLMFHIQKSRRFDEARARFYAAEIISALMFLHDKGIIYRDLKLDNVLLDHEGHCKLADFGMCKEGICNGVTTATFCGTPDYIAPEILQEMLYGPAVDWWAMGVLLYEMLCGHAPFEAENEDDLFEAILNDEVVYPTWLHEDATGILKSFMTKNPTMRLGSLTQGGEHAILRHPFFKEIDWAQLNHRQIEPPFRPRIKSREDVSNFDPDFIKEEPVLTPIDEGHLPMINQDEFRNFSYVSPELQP

Which residual activity does the source give for O=C(O)c1ccc2c3c1cccc3c(=O)n1c3ccccc3nc21 here?
Its residual activity is 100%.

Which residual activity does the source give for Cc1cc(Nc2nc(-c3ccccc3)nc3ccccc23)n[nH]1 here?
Its residual activity is 89.6%.

N#Cc1c(NC(=O)c2cccc3ccccc23)sc2c1CCCC2 was tested. Which residual activity did it give?
Its residual activity is 97.9%.

COc1cc2ncnc(Nc3ccc(O)c(Br)c3)c2cc1OC was tested. Which residual activity did it give?
The residual activity was 86.3%.

biological target: ROCK1 (human) (UniProt Q13464); assay: as above; details: compound 0.5 µM; ATP 10 µM

With O=C(O)c1ccc2c3c1cccc3c(=O)n1c3ccccc3nc21 as the compound, how does the residual activity read?
Its residual activity is 104%.

Cc1cc(Nc2nc(-c3ccccc3)nc3ccccc23)n[nH]1 was tested. Which residual activity did it give?
Its residual activity is 98.8%.

For N#Cc1c(NC(=O)c2cccc3ccccc23)sc2c1CCCC2, which residual activity is on record?
The residual activity was 96.3%.

For COc1cc2ncnc(Nc3ccc(O)c(Br)c3)c2cc1OC, which residual activity is on record?
Its residual activity is 96.1%.

biological target: RPS6KB2 (human) (UniProt Q9UBS0); assay: as above; details: compound 0.5 µM; ATP 10 µM
Sequence (Q9UBS0 whole entry, looked up): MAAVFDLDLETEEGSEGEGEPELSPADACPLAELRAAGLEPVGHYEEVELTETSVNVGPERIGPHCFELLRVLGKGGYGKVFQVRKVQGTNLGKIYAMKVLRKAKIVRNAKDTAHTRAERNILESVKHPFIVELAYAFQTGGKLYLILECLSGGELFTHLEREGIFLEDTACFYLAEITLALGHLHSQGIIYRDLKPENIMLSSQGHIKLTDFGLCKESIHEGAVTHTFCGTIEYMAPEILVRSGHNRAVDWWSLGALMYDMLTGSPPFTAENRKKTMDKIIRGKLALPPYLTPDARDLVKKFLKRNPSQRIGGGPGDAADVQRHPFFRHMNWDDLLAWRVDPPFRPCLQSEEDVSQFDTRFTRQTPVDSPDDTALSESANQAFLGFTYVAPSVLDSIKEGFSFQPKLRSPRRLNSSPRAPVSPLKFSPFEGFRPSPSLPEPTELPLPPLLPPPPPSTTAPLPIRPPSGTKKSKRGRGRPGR

O=C(O)c1ccc2c3c1cccc3c(=O)n1c3ccccc3nc21 was tested. Which residual activity did it give?
The residual activity was 98%.

How did the residual activity turn out when Cc1cc(Nc2nc(-c3ccccc3)nc3ccccc23)n[nH]1 was run?
The residual activity was 99.7%.

For N#Cc1c(NC(=O)c2cccc3ccccc23)sc2c1CCCC2, which residual activity is on record?
The residual activity was 100%.

How did the residual activity turn out when COc1cc2ncnc(Nc3ccc(O)c(Br)c3)c2cc1OC was run?
Its residual activity is 102%.

biological target: STK4 (human) (UniProt Q13043); assay: as above; details: compound 0.5 µM; ATP 10 µM
Sequence (Q13043 whole entry, looked up): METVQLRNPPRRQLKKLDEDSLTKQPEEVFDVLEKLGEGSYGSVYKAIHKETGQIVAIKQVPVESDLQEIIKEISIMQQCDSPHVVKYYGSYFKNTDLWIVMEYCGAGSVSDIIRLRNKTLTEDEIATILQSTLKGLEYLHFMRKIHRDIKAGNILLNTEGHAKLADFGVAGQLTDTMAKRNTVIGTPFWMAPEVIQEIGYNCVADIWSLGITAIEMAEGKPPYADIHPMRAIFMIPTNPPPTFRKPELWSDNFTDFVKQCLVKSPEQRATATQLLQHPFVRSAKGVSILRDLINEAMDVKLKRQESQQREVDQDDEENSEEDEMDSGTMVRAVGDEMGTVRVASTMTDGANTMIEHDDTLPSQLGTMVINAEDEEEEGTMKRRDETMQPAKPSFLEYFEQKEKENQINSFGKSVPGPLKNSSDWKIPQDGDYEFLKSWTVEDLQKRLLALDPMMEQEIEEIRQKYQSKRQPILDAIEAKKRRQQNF

How did the residual activity turn out when O=C(O)c1ccc2c3c1cccc3c(=O)n1c3ccccc3nc21 was run?
The residual activity was 93.3%.

How did the residual activity turn out when Cc1cc(Nc2nc(-c3ccccc3)nc3ccccc23)n[nH]1 was run?
Its residual activity is 58%.

Which residual activity does the source give for N#Cc1c(NC(=O)c2cccc3ccccc23)sc2c1CCCC2 here?
The residual activity was 93.1%.

With COc1cc2ncnc(Nc3ccc(O)c(Br)c3)c2cc1OC as the compound, how does the residual activity read?
Its residual activity is 90%.

biological target: TAOK2 (human) (UniProt Q9UL54); assay: as above; details: compound 0.5 µM; ATP 10 µM

With O=C(O)c1ccc2c3c1cccc3c(=O)n1c3ccccc3nc21 as the compound, how does the residual activity read?
Its residual activity is 95.2%.

For Cc1cc(Nc2nc(-c3ccccc3)nc3ccccc23)n[nH]1, which residual activity is on record?
The residual activity was 90.3%.

With N#Cc1c(NC(=O)c2cccc3ccccc23)sc2c1CCCC2 as the compound, how does the residual activity read?
Its residual activity is 99.8%.

Which residual activity does the source give for COc1cc2ncnc(Nc3ccc(O)c(Br)c3)c2cc1OC here?
The residual activity was 95.8%.

biological target: TBK1 (human) (UniProt Q9UHD2); assay: as above; details: compound 0.5 µM; ATP 10 µM

O=C(O)c1ccc2c3c1cccc3c(=O)n1c3ccccc3nc21 was tested. Which residual activity did it give?
The residual activity was 20.2%.

With Cc1cc(Nc2nc(-c3ccccc3)nc3ccccc23)n[nH]1 as the compound, how does the residual activity read?
The residual activity was 53.8%.

Which residual activity does the source give for N#Cc1c(NC(=O)c2cccc3ccccc23)sc2c1CCCC2 here?
Its residual activity is 94%.

How did the residual activity turn out when COc1cc2ncnc(Nc3ccc(O)c(Br)c3)c2cc1OC was run?
Its residual activity is 84.7%.

biological target: TEK (human) (UniProt Q02763); assay: as above; details: compound 0.5 µM; ATP 10 µM

How did the residual activity turn out when O=C(O)c1ccc2c3c1cccc3c(=O)n1c3ccccc3nc21 was run?
The residual activity was 102%.

With Cc1cc(Nc2nc(-c3ccccc3)nc3ccccc23)n[nH]1 as the compound, how does the residual activity read?
Its residual activity is 104%.

Which residual activity does the source give for N#Cc1c(NC(=O)c2cccc3ccccc23)sc2c1CCCC2 here?
The residual activity was 104%.

With COc1cc2ncnc(Nc3ccc(O)c(Br)c3)c2cc1OC as the compound, how does the residual activity read?
Its residual activity is 93.8%.

biological target: TGFBR1 (human) (UniProt P36897); assay: as above; details: compound 0.5 µM; ATP 10 µM

How did the residual activity turn out when O=C(O)c1ccc2c3c1cccc3c(=O)n1c3ccccc3nc21 was run?
Its residual activity is 99.4%.

Cc1cc(Nc2nc(-c3ccccc3)nc3ccccc23)n[nH]1 was tested. Which residual activity did it give?
The residual activity was 97.1%.

For N#Cc1c(NC(=O)c2cccc3ccccc23)sc2c1CCCC2, which residual activity is on record?
Its residual activity is 101%.

With COc1cc2ncnc(Nc3ccc(O)c(Br)c3)c2cc1OC as the compound, how does the residual activity read?
The residual activity was 97.4%.

biological target: VRK1 (human) (UniProt Q99986); assay: as above; details: compound 0.5 µM; ATP 10 µM
Sequence (Q99986 whole entry, looked up): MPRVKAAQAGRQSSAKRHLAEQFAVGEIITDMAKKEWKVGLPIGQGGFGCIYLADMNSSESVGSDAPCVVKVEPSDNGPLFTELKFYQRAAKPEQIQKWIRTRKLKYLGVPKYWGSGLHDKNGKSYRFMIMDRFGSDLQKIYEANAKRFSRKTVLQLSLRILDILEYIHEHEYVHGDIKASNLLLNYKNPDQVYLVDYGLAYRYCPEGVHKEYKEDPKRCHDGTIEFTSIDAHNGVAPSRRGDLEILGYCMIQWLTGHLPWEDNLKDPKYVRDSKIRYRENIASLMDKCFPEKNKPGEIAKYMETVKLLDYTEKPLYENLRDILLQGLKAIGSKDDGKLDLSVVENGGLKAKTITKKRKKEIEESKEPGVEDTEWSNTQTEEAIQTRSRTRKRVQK

O=C(O)c1ccc2c3c1cccc3c(=O)n1c3ccccc3nc21 was tested. Which residual activity did it give?
The residual activity was 103%.

How did the residual activity turn out when Cc1cc(Nc2nc(-c3ccccc3)nc3ccccc23)n[nH]1 was run?
Its residual activity is 81%.

For N#Cc1c(NC(=O)c2cccc3ccccc23)sc2c1CCCC2, which residual activity is on record?
Its residual activity is 87.2%.

With COc1cc2ncnc(Nc3ccc(O)c(Br)c3)c2cc1OC as the compound, how does the residual activity read?
Its residual activity is 86.4%.
